The term IC50 denotes the concentration at which inhibition is half-maximal.

Bounds are passed on as bounds.

Consider seven molecules from ChEMBL document CHEMBL2029289, “Structure-activity relationship study of a CXC chemokine receptor type 4 antagonist, FC131, using a series of alkene dipeptide isosteres” (J Med Chem, 2012).

Chain of C-X-C chemokine receptor type 4 (P61073 whole entry): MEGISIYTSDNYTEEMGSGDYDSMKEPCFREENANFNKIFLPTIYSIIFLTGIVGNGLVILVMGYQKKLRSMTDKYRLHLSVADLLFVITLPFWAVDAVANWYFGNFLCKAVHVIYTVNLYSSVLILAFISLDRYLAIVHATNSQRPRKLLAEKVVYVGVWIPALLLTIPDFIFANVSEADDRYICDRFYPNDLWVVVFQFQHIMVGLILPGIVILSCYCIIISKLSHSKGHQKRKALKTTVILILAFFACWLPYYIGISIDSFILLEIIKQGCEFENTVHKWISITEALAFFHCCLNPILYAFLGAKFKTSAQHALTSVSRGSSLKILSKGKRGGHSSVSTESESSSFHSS

The assay has as its target C-X-C chemokine receptor type 4 (Homo sapiens, UniProt P61073). The experiment in a line: Displacement of [125I]SDF-1alpha from CXCR4 expressed in HEK293 cell membrane after 1 hr. It counts as cell membranes. A general note: In a radioligand displacement assay an active substance lowers the binding of a labelled ligand.
Molecule `CN1C(=O)[C@@H](Cc2ccc(O)cc2)NC(=O)CNC(=O)[C@H](Cc2ccc3ccccc3c2)NC(=O)[C@H](CCCN=C(N)N)NC(=O)[C@H]1CCCN=C(N)N` gave a half-maximal inhibitory concentration (IC50) of 63 nM. In other words, the double-digit nanomolar range. `NC(N)=NCCC[C@H]1/C=C/[C@@H](Cc2ccc(O)cc2)NC(=O)CNC(=O)[C@H](Cc2ccc3ccccc3c2)NC(=O)[C@H](CCCN=C(N)N)NC1=O` registered a half-inhibitory concentration (IC50) of 330 nM. Turning to `C/C1=C\[C@H](CCCNC(=N)N)C(=O)N[C@@H](CCCNC(=N)N)C(=O)N[C@@H](Cc2ccc3ccccc3c2)C(=O)NCC(=O)N[C@@H]1Cc1ccc(O)cc1`, the 50% inhibitory concentration (IC50) came to 500 nM. In the case of `C/C1=C(/C)[C@@H](Cc2ccc(O)cc2)NC(=O)CNC(=O)[C@H](Cc2ccc3ccccc3c2)NC(=O)[C@H](CCCNC(=N)N)NC(=O)[C@H]1CCCNC(=N)N`, the concentration for half-maximal inhibition (IC50) is 2500 nM.

Molecule `C/C1=C(/C)[C@@H](CCCNC(=N)N)C(=O)N[C@@H](CCCNC(=N)N)C(=O)N[C@@H](Cc2ccc3ccccc3c2)C(=O)NCC(=O)N[C@@H]1Cc1ccc(O)cc1` had a concentration for half-maximal inhibition (IC50) of 100 nM. This IC50 lies about 25-fold lower than the previous one. As to `NC(N)=NCCC[C@H]1CC[C@H](Cc2ccc(O)cc2)NC(=O)CNC(=O)[C@H](Cc2ccc3ccccc3c2)NC(=O)[C@H](CCCN=C(N)N)NC1=O`, the IC50 was above 10000 nM. The figure for `CN1C(=O)[C@@H](Cc2ccc(O)cc2)NC(=O)CNC(=O)[C@H](Cc2ccc3ccccc3c2)NC(=O)[C@H](CCCNC(=N)N)NC(=O)[C@@H]1CCCNC(=N)N` is 290 nM.
